From US5098900A, “3(2H)pyridazinone, process for its preparation and anti-allergic agent containing it” (Nissan Chemical Industries Ltd., priority 1984, dated 1992)

What was measured:
LTC4 = LTC4 antagonism in isolated guinea-pig trachea (LTC4-induced contraction); type: cell-based; settings: Cavia porcellus, 5 min, test compound 10^-5 g/ml; LTC4 2×10^-8 g/ml; guinea-pig trachea; read-out: LTC4 antagonism
Protocol: (§1) (ii) LTC4 and LTD4 antagonisms in guinea-pig trachea
(§2) Antagonism for LTC4 and LTD4 were determined in isolated guinea-pig trachea prepared as spiral strip. 10 Tracheal preparations were suspended under 1 g tension in […] and they were incubated for 1 hr prior to use. Contractile responses to LTC4 (2×10^-8 g/ml) and LTD4 (2×10^-8 g/ml) were obtained after the maximal response to histamine (10^-4 M). Test compounds dissolved in 100% dimethyl sulfoxide were added to the organ baths (final concentration of 10^-5 g/ml) 5 min prior to LTC4 and LTD4 addition, and then contractile responses to LTC4 and LTD4 were compared with those of control which was obtained from a paired trachea in the absence of test compounds. LTC4 - and LTD4 -induced contractions were expressed as a percentage of the maximal response to histamine. The antagonism was determined as follows: Antagonism (%)=(1.0-% contraction in test/% contraction in control)×100

LTD4 = LTD4 antagonism in isolated guinea-pig trachea (LTD4-induced contraction); type: cell-based; settings: Cavia porcellus, 5 min, test compound 10^-5 g/ml, LTD4 2×10^-8 g/ml
Protocol: as §1, §2

[1] = tested on: antigen-induced anaphylactic bronchoconstriction; assay: Effect on anaphylactic bronchoconstriction in passively sensitized guinea-pig; type: in vivo; settings: 2 mg/kg, i.v.
Protocol: (iii) Effect on anaphylactic bronchoconstriction in passively sensitized guinea-pig
Male guinea-pigs (350-450 g) were passively sensitized with intravenous (i.v.) injection of 0.125 ml rabbit anti-EA serum (Cappel Laboratories) 1 day preceding the experiment. […] The right jugular vein was cannulated for the administration of the all agents and trachea was cannulated to record total pulmonary resistance. Guinea-pigs were artificially ventilated by a small animal respirator (Shinano, Model SN-480-7) set at a stroke volume of 4-5 ml and a rate of 50 breaths per min. […] The increase in air overflow volume was expressed as a percentage of the maximum bronchoconstriction obtained by clamping off the trachea. Following surgical preparation, the animals were pretreated with indomethacin (1.0 mg/kg, 10 min), pyrilamine (2 mg/kg, 6 min) and propranolol (0.1 mg/kg, 5 min) prior to the EA challenge (0.1 or 10 mg/kg). All test compounds, 2 mg/kg in 3% Tween 80 or 3% PEG-400, were administered 1 min before the EA challenge. Inhibition (%) of bronchoconstriction was determined as follows Inhibition (%)=(1.0% -maximum bronchoconstriction in test/% maximum bronchoconstriction in control) ×100.
In the Table, the dose of EA was 10 mg/kg, and each compound was dissolved or suspended in 3% Tween 80.
In the Table, the dose of EA was 0.1 mg/kg.
*: PEG represents polyethylene glycol400.

ddY strain male = assay: Acute toxicity test, method-(2), intraperitoneal injection; type: in vivo, ddY strain male (4 weeks old); settings: 7 days
Protocol: The lethal ratio was determined in ddY strain male (4 weeks old) at 7 days after the intraperitoneal injection of test compounds.

SRS-A = SRS-A antagonism in guinea-pig ileum (SRS-A-induced contraction); type: cell-based; settings: 1 min, test compound 5×10^-7 g/ml, isolated guinea-pig ileum; for inhibition at 0.5 µg/mL: Cavia porcellus
Protocol: (i) SRS-A antagonism in quinea-pig ileum
SRS-A antagonism was determined against the contraction induced by SRS-A in isolated guinea-pig ileum. The SRS-A was prepared in accordance with the method of Brocklehurst (J. Physiol., 151, 416, 1960) and Kohno and Parker (J. Immunol., 125, 446, 1980). Adult male guinea-pigs (200-250 g) were sensitized with chick egg albumin (EA), 100 mg subcutaneously and 100 mg intraperitoneally. Three weeks later the animals were killed by a blow on the head and lungs were perfused free of blood with Tyrode solution passed through the right ventricle. Isolated lungs were chopped into pieces (1 mm^3) by a scissors in Tyrode solution and filtrated with gauze, and then 1.0-1.3 g of chopped lung fragments were distributed into individual tubes (9.7 ml of Tyrode solution/tube). EA solution (0.3 ml) at a 3×10^-4 g/ml final concentration was added to the tubes and incubated for 20 min at 37° C., and then the supernatant was used for the SRS-A antagonism.
Assay for SRS-A antagonism was performed as follows: Ileum preparations isolated from male guinea-pig (300-400 g) were suspended under 0.5 g tension in organ baths (5 ml) containing Tyrode solution maintained at 30° C. and gassed with 95% O2 +5% CO2. After the repeated responses to histamine (10^-7 g/ml) was established, the contractile response to SRS-A (0.5 ml) was carried out in the presence of 10^-6 M atropine and 10^-6 M pyrilamine. Test compounds dissolved in 100% dimethyl sulfoxide were added to the organ baths (final concentration of 5×10^-7 g/ml) 1 min prior to the SRS-A addition, and SRS-A-induced contractions were compared with those of control (SRS-A-induced contraction before the treatment). The SRS-A antagonism (%) =[1.0 - (SRS-A-induced contraction in test compound)/control]×100

[2] = EA 0.1 mg/kg, PEG (polyethylene glycol 400)

Structure (SMILES)	inhibition at 10 µg/mL (LTC4) [%]	inhibition at 10 µg/mL (LTD4) [%]	Inhibition of anaphylactic bronchoconstriction ([1]; EA 0.1 mg/kg, Tween 80) [%]	Lethal ratio (Death number/Experimental number) (ddY strain male; 200 mg/kg)	further results
COc1ccc(CNc2cnn(C(C)C)c(=O)c2Cl)c(OC)c1 [Compound No. 97, 4-chloro-5-(2,4-dimethoxybenzylamino)-2-i-propyl-3(2H)pyridazinone]	100	100	32	0/2	Lethal ratio (Death number/Experimental number) (ddY strain male; 400 mg/kg): 0/1
CCCN(CCC)Cc1ccc(CN(C)c2cnn(C(C)(C)C)c(=O)c2Cl)cc1 [Compound No. 43, 4-Chloro-5-(4-di-n-propylaminomethyl-N-methylbenzylamino)-2-t-butyl-3(2H)pyridazinone]	57	–	–	–	Inhibition of anaphylactic bronchoconstriction ([1]; EA 10 mg/kg, 3% Tween 80): 14%
CCN(CC)C(=O)c1ccc(CNc2cnn(C(C)(C)C)c(=O)c2Cl)cc1 [compound 38]	–	–	–	–	inhibition at 0.5 µg/mL (SRS-A): 31%
CN(C)c1ccc(CNc2cnn(C(C)(C)C)c(=O)c2Cl)cc1 [Compound No. 25, 4-Chloro-5-(4-dimethylaminobenzylamino)-2-t-butyl-3(2H)-pyridazinone]	–	–	–	–	SRS-A antagonism (SRS-A): 81%
CCn1ncc(NCc2ccc(C)cc2C)c(Cl)c1=O [compound 79]	–	100	61	0/2	–
CCOc1cc(CNc2cnn(CC)c(=O)c2Cl)ccc1OC [compound 102]	97	86	–	–	Lethal ratio (Death number/Experimental number) (ddY strain male; 100 mg/kg): 0/2
Cc1ccc(CNc2cnn(C(C)C)c(=O)c2Cl)c(C)c1 [Compound No. 80]	–	99	–	0/2	Lethal ratio (Death number/Experimental number) (ddY strain male; 400 mg/kg): 0/1
CCOc1ccc(CNc2cnn(C(C)C)c(=O)c2Cl)cc1 [compound 91]	–	93	–	–	Inhibition of anaphylactic bronchoconstriction [1, 2]: 73%; Lethal ratio (Death number/Experimental number) (ddY strain male; 100 mg/kg): 0/2
COC(=O)/C=C/c1ccc(CNc2cnn(C(C)(C)C)c(=O)c2Cl)cc1 [compound 53]	–	38	–	–	Inhibition of anaphylactic bronchoconstriction ([1]; EA 10 mg/kg, 3% Tween 80): 38%
CCOc1cc(OC)ccc1CNc1cnn(C(C)C)c(=O)c1Cl [compound 109]	–	92	30	–	–
CCn1ncc(NCc2cccc(C)c2)c(Cl)c1=O [compound 75]	100	90	57	–	Lethal ratio (Death number/Experimental number) (ddY strain male; 100 mg/kg): 0/2
CC(C)n1ncc(NCc2ccccc2)c(Cl)c1=O [Compound No. 74, 4-Chloro-5-(benzylamino)-2-i-propyl-3(2H)pyridazinone]	–	91	31	–	–
Cc1cccc(CNc2cnn(C(C)C)c(=O)c2Cl)c1 [compound 76]	–	97	–	0/2	Lethal ratio (Death number/Experimental number) (ddY strain male; 400 mg/kg): 0/1
CCCn1ncc(NCc2ccc(OC)c(OC)c2)c(Cl)c1=O [Compound No. 14, 4-Chloro-5-(3,4-dimethoxybenzylamino)-2-n-propyl-3-(2H)pyridazinone]	100	36	–	–	Inhibition of anaphylactic bronchoconstriction ([1]; EA 10 mg/kg, 3% Tween 80): 28%
CCCOc1cc(CNc2cnn(C(C)C)c(=O)c2Cl)ccc1OC [Compound No. 106, 4-Chloro-5-(3-n-propoxy-4-methoxybenzylamino)-2-i-propyl-3(2H)pyridazinone]	100	100	65	0/2	Lethal ratio (Death number/Experimental number) (ddY strain male; 400 mg/kg): 0/1
COc1ccc(CNc2cnn(C(C)C)c(=O)c2Cl)cc1OC [Compound No. 15]	100	80	–	–	Inhibition of anaphylactic bronchoconstriction ([1]; EA 10 mg/kg, 3% Tween 80): 56%

Structure (SMILES)	inhibition at 10 µg/mL (LTC4) [%]	inhibition at 10 µg/mL (LTD4) [%]	Inhibition of anaphylactic bronchoconstriction ([1]; EA 0.1 mg/kg, Tween 80) [%]	Lethal ratio (Death number/Experimental number) (ddY strain male; 200 mg/kg)	further results
CN1CCN(Cc2ccc(CNc3cnn(C(C)(C)C)c(=O)c3Cl)cc2)CC1 [compound 34]	–	–	–	–	inhibition at 0.5 µg/mL (SRS-A): 19%
CCn1ncc(NCc2ccc(OC)c(OC)c2)c(Cl)c1=O [Compound No. 13]	–	76	–	–	Inhibition of anaphylactic bronchoconstriction ([1]; EA 10 mg/kg, 3% Tween 80): 43%
COc1ccc(CNc2cnn(C(C)C)c(=O)c2Cl)cc1 [Compound No. 87]	–	100	61	0/2	Lethal ratio (Death number/Experimental number) (ddY strain male; 400 mg/kg): 0/2
CCCOc1cc(OC)ccc1CNc1cnn(CC)c(=O)c1Cl [compound 112]	–	86	49	–	–
CC(C)(C)n1ncc(NCc2ccc(C(=O)O)cc2)c(Cl)c1=O [Compound No. 23, 4-chloro-5-(4-carboxybenzylamino)-2-t-butyl-3(2H)pyridazinone]	–	–	–	–	inhibition at 0.5 µg/mL (SRS-A): 18%
CCN1CCN(C(=O)c2ccc(CNc3cnn(C(C)(C)C)c(=O)c3Cl)cc2)CC1 [compound 42]	–	–	–	–	inhibition at 0.5 µg/mL (SRS-A): 14%
CCOc1cccc(CNc2cnn(C(C)C)c(=O)c2Cl)c1 [Compound No. 89]	89	95	–	0/2	Inhibition of anaphylactic bronchoconstriction [1, 2]: 79%; Lethal ratio (Death number/Experimental number) (ddY strain male; 400 mg/kg): 0/1
CCOc1cc(CNc2cnn(C(C)C)c(=O)c2Cl)ccc1OC [compound 103]	100	100	76	0/2	–
CCCOc1cc(CNc2cnn(CC)c(=O)c2Cl)ccc1OC [Compound No. 105]	100	100	29	–	Lethal ratio (Death number/Experimental number) (ddY strain male; 100 mg/kg): 0/2
CCOc1ccccc1CNc1cnn(CC)c(=O)c1Cl [compound 90]	–	96	–	0/2	Lethal ratio (Death number/Experimental number) (ddY strain male; 400 mg/kg): 0/2
CCn1ncc(NCc2ccc(OC)cc2OC)c(Cl)c1=O [compound 99]	–	99	–	–	Lethal ratio (Death number/Experimental number) (ddY strain male; 100 mg/kg): 0/2
CCOc1cccc(CNc2cnn(CC)c(=O)c2Cl)c1 [compound 88]	81	95	45	0/2	Lethal ratio (Death number/Experimental number) (ddY strain male; 400 mg/kg): 0/2
CCCOc1cccc(CNc2cnn(C(C)C)c(=O)c2Cl)c1 [compound 94]	83	75	–	0/2	–
COc1ccccc1CNc1cnn(C(C)C)c(=O)c1Cl [compound 86]	100	87	29	0/2	Lethal ratio (Death number/Experimental number) (ddY strain male; 400 mg/kg): 0/1
CC(C)n1ncc(NCc2ccc3c(c2)OCO3)c(Cl)c1=O [compound 119]	100	100	33	–	–
